In US10766857B2, “Compound having BLT inhibitory activity and composition, for preventing or treating inflammatory diseases, comprising same as active ingredient” (DONGGUK UNIVERSITY INDUSTRY-ACADEMIC COOPERATION FOUNDATION, priority 2015, dated 2020):

Experiments:
BLT1 = biological target: T1, BLT1 (Homo sapiens, UniProt Q15722); assay: LTB4-induced chemotactic motility, Transwell, CHO-BLT1 cells; assay type: cell-based; details: LTB4 10 nM, serum-free, read-out: IC50 of chemotactic motility inhibition
T1 construct: expressed in transfected cells; host or cells: CHO cells stably expressing BLT1 (CHO-BLT1)
T1 sequence (Q15722 whole entry, species assumed): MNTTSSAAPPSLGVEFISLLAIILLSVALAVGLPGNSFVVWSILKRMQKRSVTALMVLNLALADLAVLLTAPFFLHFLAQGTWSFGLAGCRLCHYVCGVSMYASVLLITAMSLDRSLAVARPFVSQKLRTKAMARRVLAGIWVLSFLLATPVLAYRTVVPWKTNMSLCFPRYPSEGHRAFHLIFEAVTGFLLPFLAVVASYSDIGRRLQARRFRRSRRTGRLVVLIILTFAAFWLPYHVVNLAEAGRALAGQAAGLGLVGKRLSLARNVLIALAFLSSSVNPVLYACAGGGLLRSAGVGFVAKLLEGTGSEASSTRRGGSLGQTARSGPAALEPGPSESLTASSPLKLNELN
Procedure: (§1) Chemotactic motility was analyzed using a Transwell chamber including a polycarbonate filter (8-μm pore size, Corning Costar) with a 6.5-mm diameter. Specifically, the lower surface of the filter was coated with 10 μg/mL fibronectin in a serum-free RPMI 1640 medium at 37° C. for 1 hour. The experiment was performed by placing the filter dried and coated with RPMI 1640 media containing various amounts of LTB4 in the lower wells of the Transwell chamber, and loading CHO cells stably expressing BLT1 and BLT2 into the upper wells containing serum-free RPMI 1640 media finally at 2×10^4 cells/100 μL. To evaluate the effect of inhibitors, the cells were pre-treated with each inhibitor for 30 minutes before dispensing. After the cells were cultured at 37° C. in 5% CO2 for 3 hours, the filters were fixed with methanol for 3 minutes, and stained with hematoxylin and eosin for 10 minutes. In the experiment, the cells were BLT2-expressing cells (CHO-BLT2 cells) and BLT1-expressing cells (CHO-BLT1 cells), and LY255283 and U75302 were used as positive controls for each type of the cells, and BLT2 ligand LTB4, (300 nM), BLT1 ligand LTB4 (10 nM), and lysophosphatidic acid (LPA; 100 nM) were used as comparative controls. The chemotactic motility was quantitatively analyzed by counting the cells on the lower side of the filter under an optical microscope (magnification, 200×). For each analysis, 6 fields were subjected to counting, each sample was analyzed twice, and the analysis was repeated three times.

BLT2 [1] = biological target: T2, BLT2 (Homo sapiens, UniProt Q9NPC1); assay: LTB4-induced chemotactic motility, Transwell, CHO-BLT2 cells; assay type: cell-based; details: LTB4 300 nM, serum-free, read-out: IC50 of chemotactic motility inhibition
T2 construct: HA; expressed in transfected cells
T2 sequence (Q9NPC1 with tags, fused parts or gaps): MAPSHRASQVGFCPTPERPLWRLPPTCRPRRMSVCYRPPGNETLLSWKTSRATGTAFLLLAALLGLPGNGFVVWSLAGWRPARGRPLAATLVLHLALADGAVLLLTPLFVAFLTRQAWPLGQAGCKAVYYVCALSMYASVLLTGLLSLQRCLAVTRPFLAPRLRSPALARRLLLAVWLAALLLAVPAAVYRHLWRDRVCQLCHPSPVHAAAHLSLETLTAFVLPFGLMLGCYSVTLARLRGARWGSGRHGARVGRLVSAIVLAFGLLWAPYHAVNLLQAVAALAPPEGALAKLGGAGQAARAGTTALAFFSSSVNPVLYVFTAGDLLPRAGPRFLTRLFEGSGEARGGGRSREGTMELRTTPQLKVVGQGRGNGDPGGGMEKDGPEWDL
Procedure: as §1

BLT2 [2] = biological target: T2, BLT2; assay: [3H]LTB4 and BLT2 binding inhibition, CHO-BLT2 cell membrane proteins; details: [3H]LTB4 5 nM
Procedure: The inhibition of LTB4 and BLT2 binding (ligand binding affinity) was analyzed using radioactive tritium (^3H)-labeled LTB4 ([^3H]LTB4, ARC; specific activity 160.0 Ci/mmol). After 2×10^6 of CHO-BLT2 cells were plated into a 100-mm culture dish and cultured for 48 hours, an experimental method was carried out as follows: Collected cells were treated using a homogenizer a total of five times for 1 minute each to separate proteins of the cell membrane. Afterward, the cells were subjected to centrifugation at 4° C. and 45,000 rpm for 40 minutes to only collect the proteins of the cell membrane, and thereby, a protein concentration of 40 μg/45 μL was quantified. When a BLT2-containing cell membrane proteins which were quantified in the same manner was treated with the same amount of [^3H]LTB4 (5 nM), and then a different concentration (10^−9, 10^−8, 10^−7, 10^−6 or 10^−5 M) of a compound, a degree of inhibiting the tritium-labeled LTB4 and BLT2 binding was measured using a Hidex 300sL liquid scintillation counter.

[3] = system: asthma-induced mice (OVA+LPS); assay: OVA+LPS-induced severe asthma mice: AHR and cell influx; assay type: in vivo; details: for AHR reduced: airway constrictor 50 mg/ml
Description: Mast cells play a pivotal role in the initial reaction to asthma, and when an allergen enters the body from the outside through an airway, the mast cells are activated, thereby secreting various cytokines (interleukin-4 and interleukin-13). Due to the cytokines, the influx of inflammatory cells, the generation of mucus and the airway contraction occur. The inventors used 7-week-old (18 to 20 g) female BALB/c mice provided by Orient (Seoungnam, Korea) for the experiment to confirm the antiasthma effect, and then the asthma was induced in the mice. On the first and 14th days, 2.5 mg of an adjuvant, aluminum hydroxide gel (alum; Pierce, Rockford, Ill.) was included in […] of ovalbumin (OVA) to intraperitoneally sensitize female […] mice. On the 21st, 22nd and 23rd days of two initial sensitizations, 1% OVA was sprayed into the mice using an ultrasonic nebulizer. The compound of the present invention (LMT-696; 5 mg/kg), LY255283 (5 mg/kg, Cayman) or DMSO was intraperitoneally injected at the 1 hour before the 1% OVA spraying. On the 24th day of the initial sensitization, airway hyperresponsiveness (AHR) was detected, and on the 25th day, the mice were dissected to observe asthma phenotypes, for example, inflammatory cytokine IL-4 expression and the influx of inflammatory cells (neutrophils). In the case of lipopolysaccharide (LPS)-induced severe asthma animal models, on the 0, 1st, 2nd and 7th days, 75 μg of OVA and 1 mg of LPS were intranasally injected into Balb/c mice for sensitization. On the 14th, 15th, 21th and 22th days, 50 μg of OVA was injected into the nose for a challenge. The compound of the present invention (LMT-1013) (1, 3, 10 or 30 mg/kg), montelukast (10 mg/kg, DRS) or a control buffer (10% DMA, 5% Tween 80, 85% brine) were treated one hour before the challenge by injecting 50 μg of OVA into the nose. On the 23rd day of the initial sensitization, AHR was detected, and on the 24th day, the mice were dissected to observe a severe asthma phenotype, for example, the influx of the inflammatory cells (neutrophils). In addition, the AHR detection was performed after an airway constrictor, methacholine (6.25 to 50 mg/ml depending on conditions), was administered to the mice. The administration of the airway constrictor was performed by spraying through an inlet of the chamber using an ultrasonic nebulizer for 3 minutes. The AHR was analyzed using an enhanced pause as the indicator of the asthma phenomenon. Bronchoalveolar lavage fluid cell counts were quantified by counting cells under an optical microscope (magnification, 200×). In each analysis, 4 fields were subjected to counting, each sample was analyzed twice, and the analysis was repeated three times.

[4] = biological target: T3, BLT2-expressing cells (CHO-BLT2 cells) (Homo sapiens, UniProt Q9NPC1); assay: MTT cell growth of LTB4-stimulated BLT2-expressing cells; assay type: cell-based; details: pre-treated at 10 μM, LTB4 300 nM
T3 construct: HA; expressed in transfected cells
T3 sequence (Q9NPC1 with tags, fused parts or gaps): T2 sequence (Q9NPC1 with tags, fused parts or gaps)
Procedure: Cell viability according to treatment of the compounds prepared in the examples were measured by a 3-(4,5-dimethylthiazol-2-yl)-2,5-diphenyltetrazolium bromide (MTT) method.
More specifically, 1×10^4 each of the BLT2-nonexpressing cells (CHO-pcDNA3.1 cells) and BLT2-expressing cells (CHO-BLT2 cells), which were prepared in Experimental Example 1, were dispensed in a […], and cultured for 24 hours. Afterward, the culture medium was removed, a serum-free RPMI medium was added, and after two hours, the cells were pre-treated with each of the compound prepared in one of the examples (10 μM), 10 μM DMSO (compound solvent) as a control, and 10 μM 1-[5-ethyl-2-hydroxy-4-[[6-methyl-6-(1H-tetrazol-5-yl)heptyl]oxy]phenyl]-ethanone (LY255283; Cayman) as a positive control for 1 hour. Subsequently, after treatment of LTB4 (300 nM), the cells were cultured for 24 hours. 20 μL of an MTT solution (5 mg/mL, Sigma-Aldrich) was added to each well, the cells were cultured in a humid CO2 incubator at 37° C. for 4 hours, a supernatant was removed, and 200 μL of DMSO was added to each well to dissolve insoluble violet formazan crystals. Absorbance was measured using a microplate reader (Molecular Devices, Sunnyvale, Calif.) at 550 nm, and the measurement was repeated three times.

SMILES: CCCCC(=O)N(CC#Cc1ccc(C(=O)O)cc1)c1ccccc1 [LMT-1013, 4-(3-(N-phenylpentaneamido)prop-1-yn-1-yl)benzoic acid]
- IC50 (BLT1): ≥ 10000 nM
- IC50 (BLT2 [1]): 62.4 nM
- IC50 (BLT2 [2]): 30.7 nM
- neutrophils reduced ([3]; 1 mg/kg, FIGS. 13A-13C): 51.6%
- neutrophils reduced ([3]; 1 mg/kg, FIGS. 14A-14B): 42.2%
- AHR reduced ([3]; 1 mg/kg): 48.6%
- neutrophils reduced ([3]; 3 mg/kg, FIGS. 14A-14B): 48.8%
- AHR reduced ([3]; 3 mg/kg): 52.9%
- neutrophils reduced ([3]; 10 mg/kg, FIGS. 13A-13C): 90.3%
- neutrophils reduced ([3]; 10 mg/kg, FIGS. 14A-14B): 71.8%
- AHR reduced ([3]; 10 mg/kg): 83.2%
- neutrophils reduced ([3]; 30 mg/kg, FIGS. 14A-14B): 88.3%
- AHR reduced ([3]; 30 mg/kg): 87.3%
- total cells entering the abdominal cavity of the mice ([3]; 1, 3, 10 and 30 mg/kg, FIGS. 14A-14B): reduced
- total cells entering the abdominal cavity of the mice ([3]; 1 and 10 mg/kg, FIGS. 13A-13C): reduced
- cell growth compared with the control DMSO [4]: 96.3%
